Source: article PMC4823954, “From fighting depression to conquering tumors: a novel tricyclic thiazepine compound as a tubulin polymerization inhibitor” (Cell Death & Disease, 2016)

Experiments:
Assay in all cases: KINOMEscan
Format in all cases: binding
Conditions in all cases: read-out: % Ctrl
ERK2 = target: T1, ERK2 (Homo sapiens, UniProt P28482)
T1 construct: purchased DiscoveRx KINOMEscan
In short: (§1)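 Competition binding panel of 442 non-mutant kinases: test compound at 5 and 10 μM competed with an active-site-directed ligand for 1 h with shaking. Bound kinase was eluted with 0.5 μM ligand and quantified by qPCR; %Ctrl = (compound − positive control)/(DMSO − positive control) × 100, lower meaning tighter binding.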

EPHB4 = target: T2, EPHB4 (Homo sapiens, UniProt P54760)
T2 construct: purchased DiscoveRx KINOMEscan
In short: as §1

GSK3A = target: T3, GSK3A (Homo sapiens, UniProt P49840)
T3 construct: purchased DiscoveRx KINOMEscan
In short: as §1

MARK1 = target: T4, MARK1 (Homo sapiens, UniProt Q9P0L2)
T4 construct: purchased DiscoveRx KINOMEscan
In short: as §1

RIPK1 = target: T5, RIPK1 (Homo sapiens, UniProt Q13546)
T5 construct: purchased DiscoveRx KINOMEscan
In short: as §1

PRKD1 = target: T6, PRKD1 (Homo sapiens, UniProt Q15139)
T6 construct: purchased DiscoveRx KINOMEscan
In short: as §1

PFPK5(P.falciparum) = target: T7, PFPK5(P.falciparum) (Plasmodium falciparum, UniProt P61075)
T7 construct: purchased DiscoveRx KINOMEscan
In short: as §1

GRK4 = target: T8, GRK4 (Homo sapiens, UniProt P32298)
T8 construct: purchased DiscoveRx KINOMEscan
In short: as §1

SNARK = target: T9, SNARK (Homo sapiens, UniProt Q9H093)
T9 construct: purchased DiscoveRx KINOMEscan
In short: as §1

HCK = target: T10, HCK (Homo sapiens, UniProt P08631)
T10 construct: purchased DiscoveRx KINOMEscan
In short: as §1

[1] = target: T11, RSK4(Kin.Dom.2-C-terminal) (Homo sapiens, UniProt Q9UK32)
T11 construct: RSK4(Kin.Dom.2-C-terminal); purchased DiscoveRx KINOMEscan
In short: as §1

TNNI3K = target: T12, TNNI3K (Homo sapiens, UniProt Q59H18)
T12 construct: purchased DiscoveRx KINOMEscan
In short: as §1

TIE1 = target: T13, TIE1 (Homo sapiens, UniProt P35590)
T13 construct: purchased DiscoveRx KINOMEscan
In short: as §1

PRKCI = target: T14, PRKCI (Homo sapiens, UniProt P41743)
T14 construct: purchased DiscoveRx KINOMEscan
In short: as §1

PCTK1 = target: T15, PCTK1 (Homo sapiens, UniProt Q00536)
T15 construct: purchased DiscoveRx KINOMEscan
In short: as §1

MAP4K3 = target: T16, MAP4K3 (Homo sapiens, UniProt Q8IVH8)
T16 construct: purchased DiscoveRx KINOMEscan
In short: as §1

STK16 = target: T17, STK16 (Homo sapiens, UniProt O75716)
T17 construct: purchased DiscoveRx KINOMEscan
In short: as §1

PKAC-alpha = target: T18, PKAC-alpha (Homo sapiens, UniProt P17612)
T18 construct: purchased DiscoveRx KINOMEscan
In short: as §1

BRSK2 = target: T19, BRSK2 (Homo sapiens, UniProt Q8IWQ3)
T19 construct: purchased DiscoveRx KINOMEscan
In short: as §1

PIK3CA(H1047Y) = target: T20, PIK3CA(H1047Y) (Homo sapiens, UniProt P42336, H1047Y)
T20 construct: purchased DiscoveRx KINOMEscan

EGFR(L858R,T790M) = target: T21, EGFR(L858R,T790M) (Homo sapiens, UniProt P00533, L858R/T790M)
T21 construct: purchased DiscoveRx KINOMEscan

BTK = target: T22, BTK (Homo sapiens, UniProt Q06187)
T22 construct: purchased DiscoveRx KINOMEscan
In short: as §1

CSNK1G3 = target: T23, CSNK1G3 (Homo sapiens, UniProt Q9Y6M4)
T23 construct: purchased DiscoveRx KINOMEscan
In short: as §1

NLK = target: T24, NLK (Homo sapiens, UniProt Q9UBE8)
T24 construct: purchased DiscoveRx KINOMEscan
In short: as §1

AAK1 = target: T25, AAK1 (Homo sapiens, UniProt Q2M2I8)
T25 construct: purchased DiscoveRx KINOMEscan
In short: as §1

[2] = target: T26, RSK3(Kin.Dom.2-C-terminal) (Homo sapiens, UniProt Q15349)
T26 construct: RSK3(Kin.Dom.2-C-terminal); purchased DiscoveRx KINOMEscan
In short: as §1

MAPKAPK2 = target: T27, MAPKAPK2 (Homo sapiens, UniProt P49137)
T27 construct: purchased DiscoveRx KINOMEscan
In short: as §1

ERK4 = target: T28, ERK4 (Homo sapiens, UniProt P31152)
T28 construct: purchased DiscoveRx KINOMEscan
In short: as §1

TXK = target: T29, TXK (Homo sapiens, UniProt P42681)
T29 construct: purchased DiscoveRx KINOMEscan
In short: as §1

T10 sequence (P08631 whole entry): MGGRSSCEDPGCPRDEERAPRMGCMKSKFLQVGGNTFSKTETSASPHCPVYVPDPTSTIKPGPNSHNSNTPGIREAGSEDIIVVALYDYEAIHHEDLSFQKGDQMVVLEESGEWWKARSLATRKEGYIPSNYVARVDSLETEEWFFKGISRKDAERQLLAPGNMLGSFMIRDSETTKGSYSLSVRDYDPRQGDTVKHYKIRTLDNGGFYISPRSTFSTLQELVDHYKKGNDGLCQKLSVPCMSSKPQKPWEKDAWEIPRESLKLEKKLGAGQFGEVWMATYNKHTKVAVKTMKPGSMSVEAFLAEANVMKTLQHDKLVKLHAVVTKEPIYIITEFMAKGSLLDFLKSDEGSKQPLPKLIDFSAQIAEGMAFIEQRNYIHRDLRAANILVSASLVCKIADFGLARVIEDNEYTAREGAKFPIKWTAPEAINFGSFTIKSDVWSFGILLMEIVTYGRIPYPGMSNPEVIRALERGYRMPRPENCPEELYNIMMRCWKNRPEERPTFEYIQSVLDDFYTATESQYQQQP
T23 sequence (Q9Y6M4 whole entry): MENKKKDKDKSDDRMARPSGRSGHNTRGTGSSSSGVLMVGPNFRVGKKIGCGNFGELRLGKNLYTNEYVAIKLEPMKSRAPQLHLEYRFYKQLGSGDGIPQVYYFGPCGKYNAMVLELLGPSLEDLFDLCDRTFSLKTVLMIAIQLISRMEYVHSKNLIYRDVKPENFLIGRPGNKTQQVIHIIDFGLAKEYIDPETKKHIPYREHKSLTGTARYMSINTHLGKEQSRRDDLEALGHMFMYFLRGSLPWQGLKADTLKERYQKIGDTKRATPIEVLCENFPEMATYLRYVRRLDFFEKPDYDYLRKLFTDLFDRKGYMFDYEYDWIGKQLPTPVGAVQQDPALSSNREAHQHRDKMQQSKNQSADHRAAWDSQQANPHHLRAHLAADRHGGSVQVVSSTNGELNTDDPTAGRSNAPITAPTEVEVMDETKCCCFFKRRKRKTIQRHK
T8 sequence (P32298 whole entry): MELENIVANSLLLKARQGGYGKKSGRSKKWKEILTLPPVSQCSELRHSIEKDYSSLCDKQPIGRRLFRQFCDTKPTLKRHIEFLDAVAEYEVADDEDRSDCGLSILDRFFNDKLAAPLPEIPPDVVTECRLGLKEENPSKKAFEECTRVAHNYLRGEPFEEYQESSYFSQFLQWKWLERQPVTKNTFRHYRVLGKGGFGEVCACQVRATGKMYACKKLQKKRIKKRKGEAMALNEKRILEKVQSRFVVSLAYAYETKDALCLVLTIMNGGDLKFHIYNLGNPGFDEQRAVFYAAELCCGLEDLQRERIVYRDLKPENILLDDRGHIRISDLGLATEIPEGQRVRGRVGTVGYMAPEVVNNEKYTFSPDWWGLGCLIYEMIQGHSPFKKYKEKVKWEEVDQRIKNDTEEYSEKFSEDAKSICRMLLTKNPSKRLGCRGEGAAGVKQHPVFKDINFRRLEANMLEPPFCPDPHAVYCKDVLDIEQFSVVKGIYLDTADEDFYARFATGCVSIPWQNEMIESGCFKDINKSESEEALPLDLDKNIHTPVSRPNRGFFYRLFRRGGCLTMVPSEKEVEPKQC
T16 sequence (Q8IVH8 whole entry): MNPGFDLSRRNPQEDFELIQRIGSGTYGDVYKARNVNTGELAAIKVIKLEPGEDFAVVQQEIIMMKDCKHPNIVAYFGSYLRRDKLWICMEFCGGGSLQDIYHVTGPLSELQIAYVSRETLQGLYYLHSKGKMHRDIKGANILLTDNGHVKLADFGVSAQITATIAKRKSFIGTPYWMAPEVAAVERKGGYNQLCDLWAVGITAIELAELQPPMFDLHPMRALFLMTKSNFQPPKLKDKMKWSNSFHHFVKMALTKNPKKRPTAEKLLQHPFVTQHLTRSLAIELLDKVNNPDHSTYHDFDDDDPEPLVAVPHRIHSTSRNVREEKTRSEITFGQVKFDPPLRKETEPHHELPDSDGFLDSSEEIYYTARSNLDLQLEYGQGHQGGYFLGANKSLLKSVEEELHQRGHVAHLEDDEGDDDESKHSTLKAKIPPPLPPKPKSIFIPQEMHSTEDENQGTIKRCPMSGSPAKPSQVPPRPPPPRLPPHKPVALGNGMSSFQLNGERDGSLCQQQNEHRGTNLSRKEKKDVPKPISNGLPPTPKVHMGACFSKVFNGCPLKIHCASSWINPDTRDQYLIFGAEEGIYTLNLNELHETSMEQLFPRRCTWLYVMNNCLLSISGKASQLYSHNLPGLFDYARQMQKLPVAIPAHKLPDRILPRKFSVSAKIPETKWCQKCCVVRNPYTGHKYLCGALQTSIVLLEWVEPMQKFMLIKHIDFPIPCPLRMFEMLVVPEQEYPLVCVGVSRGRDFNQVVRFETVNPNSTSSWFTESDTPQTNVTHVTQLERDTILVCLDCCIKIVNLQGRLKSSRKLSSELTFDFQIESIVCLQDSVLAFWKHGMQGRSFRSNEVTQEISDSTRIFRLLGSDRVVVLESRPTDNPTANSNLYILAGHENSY
T15 sequence (Q00536 whole entry): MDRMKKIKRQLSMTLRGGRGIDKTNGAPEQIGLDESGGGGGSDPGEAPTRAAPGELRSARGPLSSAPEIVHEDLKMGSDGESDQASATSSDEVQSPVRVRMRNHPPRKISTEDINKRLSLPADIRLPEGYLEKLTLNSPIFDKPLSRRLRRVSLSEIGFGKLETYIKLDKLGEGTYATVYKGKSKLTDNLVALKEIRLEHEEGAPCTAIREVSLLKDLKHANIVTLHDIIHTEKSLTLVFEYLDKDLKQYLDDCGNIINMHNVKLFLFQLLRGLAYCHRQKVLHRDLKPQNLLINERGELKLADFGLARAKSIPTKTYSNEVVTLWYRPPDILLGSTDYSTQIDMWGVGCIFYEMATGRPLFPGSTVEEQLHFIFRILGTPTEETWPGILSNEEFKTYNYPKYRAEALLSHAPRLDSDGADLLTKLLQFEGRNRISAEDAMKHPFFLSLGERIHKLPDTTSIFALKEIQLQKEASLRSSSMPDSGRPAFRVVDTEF
T24 sequence (Q9UBE8 whole entry): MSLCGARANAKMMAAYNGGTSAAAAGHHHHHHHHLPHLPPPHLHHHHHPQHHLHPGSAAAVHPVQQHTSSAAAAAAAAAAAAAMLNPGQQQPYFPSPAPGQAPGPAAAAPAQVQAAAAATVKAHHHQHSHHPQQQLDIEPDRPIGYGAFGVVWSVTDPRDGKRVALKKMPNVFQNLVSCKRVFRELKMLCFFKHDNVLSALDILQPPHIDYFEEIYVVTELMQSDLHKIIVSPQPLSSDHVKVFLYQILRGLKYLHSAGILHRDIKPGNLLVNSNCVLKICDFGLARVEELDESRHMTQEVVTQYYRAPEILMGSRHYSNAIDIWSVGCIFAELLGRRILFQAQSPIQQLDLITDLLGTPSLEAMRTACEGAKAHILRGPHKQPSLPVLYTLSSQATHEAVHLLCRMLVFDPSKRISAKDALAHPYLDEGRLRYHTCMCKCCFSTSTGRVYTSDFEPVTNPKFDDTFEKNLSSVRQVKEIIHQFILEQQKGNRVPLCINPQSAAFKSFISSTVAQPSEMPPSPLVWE
T26 sequence (Q15349 389-733 limits assumed): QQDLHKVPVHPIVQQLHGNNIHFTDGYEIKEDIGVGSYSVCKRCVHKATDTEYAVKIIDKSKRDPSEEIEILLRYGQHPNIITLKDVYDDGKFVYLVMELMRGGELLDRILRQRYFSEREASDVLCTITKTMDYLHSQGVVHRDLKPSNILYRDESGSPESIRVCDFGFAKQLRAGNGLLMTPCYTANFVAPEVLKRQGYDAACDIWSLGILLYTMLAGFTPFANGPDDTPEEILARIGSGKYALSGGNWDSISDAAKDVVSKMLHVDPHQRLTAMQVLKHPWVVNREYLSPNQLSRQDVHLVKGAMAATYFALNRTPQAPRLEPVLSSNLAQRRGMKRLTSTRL
T11 sequence (Q9UK32 401-745 limits assumed): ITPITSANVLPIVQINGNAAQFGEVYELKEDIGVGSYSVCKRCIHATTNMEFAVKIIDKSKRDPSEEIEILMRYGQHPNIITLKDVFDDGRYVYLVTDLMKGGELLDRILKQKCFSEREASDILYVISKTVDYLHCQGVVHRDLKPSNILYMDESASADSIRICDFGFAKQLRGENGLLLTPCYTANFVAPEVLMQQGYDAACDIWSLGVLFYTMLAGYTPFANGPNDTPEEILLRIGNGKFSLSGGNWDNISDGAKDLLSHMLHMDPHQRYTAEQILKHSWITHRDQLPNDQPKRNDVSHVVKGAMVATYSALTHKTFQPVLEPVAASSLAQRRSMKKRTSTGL
T12 sequence (Q59H18 whole entry): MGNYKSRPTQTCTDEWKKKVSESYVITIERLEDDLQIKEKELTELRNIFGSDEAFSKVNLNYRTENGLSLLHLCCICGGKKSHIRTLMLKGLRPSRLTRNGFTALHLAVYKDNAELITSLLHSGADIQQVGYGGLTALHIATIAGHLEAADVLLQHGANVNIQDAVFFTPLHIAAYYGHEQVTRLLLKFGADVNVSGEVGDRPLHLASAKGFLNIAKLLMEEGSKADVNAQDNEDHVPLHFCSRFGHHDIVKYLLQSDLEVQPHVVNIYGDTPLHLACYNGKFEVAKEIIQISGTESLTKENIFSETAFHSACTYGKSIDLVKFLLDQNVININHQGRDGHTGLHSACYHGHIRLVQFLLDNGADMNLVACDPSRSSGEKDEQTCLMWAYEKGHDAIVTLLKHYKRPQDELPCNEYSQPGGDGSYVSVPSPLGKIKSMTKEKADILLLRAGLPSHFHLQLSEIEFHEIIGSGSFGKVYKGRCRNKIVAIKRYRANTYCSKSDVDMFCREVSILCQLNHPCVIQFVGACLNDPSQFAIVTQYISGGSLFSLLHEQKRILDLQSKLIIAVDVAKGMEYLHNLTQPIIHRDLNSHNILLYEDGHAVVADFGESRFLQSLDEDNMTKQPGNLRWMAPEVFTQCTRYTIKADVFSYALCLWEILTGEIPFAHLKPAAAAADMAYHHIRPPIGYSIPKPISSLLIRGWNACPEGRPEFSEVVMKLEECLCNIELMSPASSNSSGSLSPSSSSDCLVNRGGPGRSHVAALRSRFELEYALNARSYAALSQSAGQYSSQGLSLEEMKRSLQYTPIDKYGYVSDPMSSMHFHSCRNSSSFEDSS

With `Cc1ccc(C2=Nc3cccnc3S(=O)(=O)c3ccccc32)cc1` [TBPT, 6-(p-tolyl)benzo[f] pyrido[2,3-b][1,4] thiazepine 11,11-dioxide] the remaining binding at 5 µM (ERK2; 5 μM) was 76%, the remaining binding at 10 µM (ERK2; 10 μM) was 92% and the remaining binding at 5 µM (EPHB4; 5 μM) was 100%. The remaining binding at 10 µM (EPHB4; 10 μM) was 98%, the remaining binding at 5 µM (GSK3A; 5 μM) was 100% and the remaining binding at 10 µM (GSK3A; 10 μM) was 100%. For the same compound, the remaining binding at 5 µM (MARK1; 5 μM) was 89%, the remaining binding at 10 µM (MARK1; 10 μM) was 100% and the remaining binding at 5 µM (RIPK1; 5 μM) was 100%. For the same compound, the remaining binding at 10 µM (RIPK1; 10 μM) was 100%, the remaining binding at 5 µM (PRKD1; 5 μM) was 100% and the remaining binding at 10 µM (PRKD1; 10 μM) was 78%. For the same compound, the remaining binding at 5 µM (PFPK5(P.falciparum); 5 μM) was 97%, the remaining binding at 10 µM (PFPK5(P.falciparum); 10 μM) was 97% and the remaining binding at 5 µM (GRK4; 5 μM) was 100%. It also gave a remaining binding at 10 µM (GRK4; 10 μM) of 95%, a remaining binding at 5 µM (SNARK; 5 μM) of 100% and a remaining binding at 10 µM (SNARK; 10 μM) of 100%. The remaining binding at 5 µM (HCK; 5 μM) was 93%, the remaining binding at 10 µM (HCK; 10 μM) was 100% and the remaining binding at 5 µM ([1]; 5 μM) was 94%. The remaining binding at 10 µM ([1]; 10 μM) was 57%, the remaining binding at 5 µM (TNNI3K; 5 μM) was 100% and the remaining binding at 10 µM (TNNI3K; 10 μM) was 89%. For the same compound, the remaining binding at 5 µM (TIE1; 5 μM) was 100%, the remaining binding at 10 µM (TIE1; 10 μM) was 98% and the remaining binding at 5 µM (PRKCI; 5 μM) was 95%. For the same compound, the remaining binding at 10 µM (PRKCI; 10 μM) was 91%, the remaining binding at 5 µM (PCTK1; 5 μM) was 90% and the remaining binding at 10 µM (PCTK1; 10 μM) was 100%. For the same compound, the remaining binding at 5 µM (MAP4K3; 5 μM) was 75%, the remaining binding at 10 µM (MAP4K3; 10 μM) was 91% and the remaining binding at 5 µM (STK16; 5 μM) was 99%. The remaining binding at 10 µM (STK16; 10 μM) was 91%, the remaining binding at 5 µM (PKAC-alpha; 5 μM) was 93% and the remaining binding at 10 µM (PKAC-alpha; 10 μM) was 100%. The remaining binding at 5 µM (BRSK2; 5 μM) was 100%, the remaining binding at 10 µM (BRSK2; 10 μM) was 100% and the remaining binding at 5 µM (PIK3CA(H1047Y); 5 μM) was 95%. For the same compound, the remaining binding at 10 µM (PIK3CA(H1047Y); 10 μM) was 100%, the remaining binding at 5 µM (EGFR(L858R,T790M); 5 μM) was 78% and the remaining binding at 10 µM (EGFR(L858R,T790M); 10 μM) was 88%. It also gave a remaining binding at 5 µM (BTK; 5 μM) of 91%, a remaining binding at 10 µM (BTK; 10 μM) of 83% and a remaining binding at 5 µM (CSNK1G3; 5 μM) of 100%. It also gave a remaining binding at 10 µM (CSNK1G3; 10 μM) of 98%, a remaining binding at 5 µM (NLK; 5 μM) of 83% and a remaining binding at 10 µM (NLK; 10 μM) of 89%. It also gave a remaining binding at 5 µM (AAK1; 5 μM) of 100%, a remaining binding at 10 µM (AAK1; 10 μM) of 89% and a remaining binding at 5 µM ([2]; 5 μM) of 100%. The remaining binding at 10 µM ([2]; 10 μM) was 100%, the remaining binding at 5 µM (MAPKAPK2; 5 μM) was 100% and the remaining binding at 10 µM (MAPKAPK2; 10 μM) was 100%. The remaining binding at 5 µM (ERK4; 5 μM) was 89%, the remaining binding at 10 µM (ERK4; 10 μM) was 100% and the remaining binding at 5 µM (TXK; 5 μM) was 100%. The remaining binding at 10 µM (TXK; 10 μM) was 75%.
